Results from patent US10597388B2, “Pyridazinone herbicides” (FMC CORPORATION, priority 2014, dated 2020).

Experiments:
Assay in all cases: Test D controlled growth environment herbicide test, pre- and postemergence
Assay type in all cases: in vivo
[1] = tested on: blackgrass (Alopecurus myosuroides)
In short: (§1)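 Pre-emergence: seeds sown in silt loam soil were sprayed with compound in a non-phytotoxic solvent mix containing surfactant. Post-emergence: plants at 2 to 18 cm (1- to 4-leaf stage) in peat moss/vermiculite medium got the same formulation. Visual 0–100 rating versus controls after 14 to 21 d.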

[2] = tested on: bromegrass, downy (downy bromegrass, Bromus tectorum)
In short: as §1

[3] = tested on: buckwheat, wild (wild buckwheat, Polygonum convolvulus)
In short: as §1

[4] = tested on: chamomile (scentless chamomile, Matricaria inodora)
In short: as §1

[5] = tested on: deadnettle (henbit deadnettle, Lamium amplexicaule)
In short: as §1

[6] = tested on: foxtail, green (green foxtail, Setaria viridis)
In short: as §1

[7] = tested on: galium (catchweed bedstraw, Galium aparine)
In short: as §1

[8] = tested on: kochia (Kochia scoparia)
In short: as §1

[9] = tested on: mustard, wild (wild mustard, Sinapis arvensis)
In short: as §1

[10] = tested on: oilseed rape (Brassica napus)
In short: as §1

[11] = tested on: pigweed (Amaranthus retroflexus)
In short: as §1

[12] = tested on: ryegrass, Italian (Italian ryegrass, Lolium multiflorum)
In short: as §1

[13] = tested on: speedwell (bird's-eye speedwell, Veronica persica)
In short: as §1

[14] = tested on: windgrass (Apera spica-venti)
In short: as §1

[15] = Postemergence, 31 g ai/ha, scale 0 to 100 (0 no effect, 100 complete control)
[16] = Postemergence, 125 g ai/ha, visual rating on scale 0 (no effect) to 100 (complete control), 14 to 21 d
[17] = Postemergence, 250 g ai/ha, scale 0 to 100 (0 no effect, 100 complete control)
[18] = Preemergence, 62 g ai/ha, scale 0 to 100 (0 no effect, 100 complete control)
[19] = Preemergence, 125 g ai/ha, scale 0 to 100 (0 no effect, 100 complete control)
[20] = Preemergence, 250 g ai/ha, scale 0 to 100, 0 no effect, 100 complete control
[21] = postemergence, 62 g ai/ha, scale 0 to 100, 0 no effect, 100 complete control

## Cc1ccc2sc(Br)c(-c3c(O)c(C)nn(C)c3=O)c2c1 [Compound 79]
[1]; [15]
  Blackgrass plant response rating: 10
[1]; [16]
  Plant response rating, Blackgrass: 40
[1]; [17]
  Plant response rating, Blackgrass: 50
[1]; Preemergence, 31 g ai/ha
  Plant response rating (scale of 0 to 100), Blackgrass: 20
[1]; [18]
  Plant response rating, Blackgrass: 45
[1]; [19]
  Plant response rating, Blackgrass: 55
[1]; [20]
  Plant response rating, Blackgrass: 60
[1]; [21]
  Plant response rating, Blackgrass: 20
[2]; [15]
  Bromegrass, Downy plant response rating: 5
[2]; [16]
  Plant response rating, Bromegrass, Downy: 10
[2]; [17]
  Plant response rating, Bromegrass, Downy: 20
[2]; Preemergence, 31 g ai/ha
  Plant response rating (scale of 0 to 100), Bromegrass, Downy: 35
[2]; [18]
  Plant response rating, Bromegrass, Downy: 35
[2]; [19]
  Plant response rating, Bromegrass, Downy: 50
[2]; [20]
  Plant response rating, Bromegrass, Downy: 60
[2]; [21]
  Plant response rating, Bromegrass, Downy: 5
[3]; [15]
  Buckwheat, Wild plant response rating: 70
[3]; [16]
  Plant response rating, Buckwheat, Wild: 100
[3]; [17]
  Plant response rating, Buckwheat, Wild: 100
[3]; Preemergence, 31 g ai/ha
  Plant response rating (scale of 0 to 100), Buckwheat, Wild: 0
[3]; [18]
  Plant response rating, Buckwheat, Wild: 90
[3]; [19]
  Plant response rating, Buckwheat, Wild: 25
[3]; [20]
  Plant response rating, Buckwheat, Wild: 100
[3]; [21]
  Plant response rating, Buckwheat, Wild: 100
[4]; [15]
  Chamomile plant response rating: 85
[4]; [16]
  Plant response rating, Chamomile: 100
[4]; [17]
  Plant response rating, Chamomile: 100
[4]; [21]
  Plant response rating, Chamomile: 95
[5]; [15]
  Deadnettle plant response rating: 5
[5]; [16]
  Plant response rating, Deadnettle: 20
[5]; [17]
  Plant response rating, Deadnettle: 40
[5]; Preemergence, 31 g ai/ha
  Plant response rating (scale of 0 to 100), Deadnettle: 0
[5]; [18]
  Plant response rating, Deadnettle: 10
[5]; [19]
  Plant response rating, Deadnettle: 100
[5]; [20]
  Plant response rating, Deadnettle: 90
[5]; [21]
  Plant response rating, Deadnettle: 15
[6]; [15]
  Foxtail, Green plant response rating: 20
[6]; [16]
  Plant response rating, Foxtail, Green: 75
[6]; [17]
  Plant response rating, Foxtail, Green: 80
[6]; Preemergence, 31 g ai/ha
  Plant response rating (scale of 0 to 100), Foxtail, Green: 55
[6]; [18]
  Plant response rating, Foxtail, Green: 60
[6]; [19]
  Plant response rating, Foxtail, Green: 65
[6]; [20]
  Plant response rating, Foxtail, Green: 95
[6]; [21]
  Plant response rating, Foxtail, Green: 70
[7]; [15]
  Galium plant response rating: 95
[7]; [16]
  Plant response rating, Galium: 100
[7]; [17]
  Plant response rating, Galium: 100
[7]; Preemergence, 31 g ai/ha
  Plant response rating (scale of 0 to 100), Galium: 80
[7]; [18]
  Plant response rating, Galium: 90
[7]; [19]
  Plant response rating, Galium: 100
[7]; [20]
  Plant response rating, Galium: 100
[7]; [21]
  Plant response rating, Galium: 100
[8]; [15]
  Kochia plant response rating: 70
[8]; [16]
  Plant response rating, Kochia: 85
[8]; [17]
  Plant response rating, Kochia: 95
[8]; Preemergence, 31 g ai/ha
  Plant response rating (scale of 0 to 100), Kochia: 60
[8]; [18]
  Plant response rating, Kochia: 55
[8]; [19]
  Plant response rating, Kochia: 100
[8]; [20]
  Plant response rating, Kochia: 95
[8]; [21]
  Plant response rating, Kochia: 80
[9]; [15]
  Mustard, Wild plant response rating: 20
[9]; [16]
  Plant response rating, Mustard, Wild: 40
[9]; [17]
  Plant response rating, Mustard, Wild: 50
[9]; Preemergence, 31 g ai/ha
  Plant response rating (scale of 0 to 100), Mustard, Wild: 0
[9]; [18]
  Plant response rating, Mustard, Wild: 15
[9]; [19]
  Plant response rating, Mustard, Wild: 5
[9]; [20]
  Plant response rating, Mustard, Wild: 10
[9]; [21]
  Plant response rating, Mustard, Wild: 20
[10]; [15]
  Oilseed Rape plant response rating: 0
[10]; [16]
  Plant response rating, Oilseed Rape: 20
[10]; [17]
  Plant response rating, Oilseed Rape: 30
[10]; Preemergence, 31 g ai/ha
  Plant response rating (scale of 0 to 100), Oilseed Rape: 25
[10]; [18]
  Plant response rating, Oilseed Rape: 35
[10]; [19]
  Plant response rating, Oilseed Rape: 40
[10]; [20]
  Plant response rating, Oilseed Rape: 35
[10]; [21]
  Plant response rating, Oilseed Rape: 5
[11]; [15]
  Pigweed plant response rating: 100
[11]; [16]
  Plant response rating, Pigweed: 100
[11]; [17]
  Plant response rating, Pigweed: 100
[11]; Preemergence, 31 g ai/ha
  Plant response rating (scale of 0 to 100), Pigweed: 45
[11]; [18]
  Plant response rating, Pigweed: 100
[11]; [19]
  Plant response rating, Pigweed: 100
[11]; [20]
  Plant response rating, Pigweed: 100
[11]; [21]
  Plant response rating, Pigweed: 100
[12]; [15]
  Ryegrass, Italian plant response rating: 70
[12]; [16]
  Plant response rating, Ryegrass, Italian: 85
[12]; [17]
  Plant response rating, Ryegrass, Italian: 90
[12]; Preemergence, 31 g ai/ha
  Plant response rating (scale of 0 to 100), Ryegrass, Italian: 80
[12]; [18]
  Plant response rating, Ryegrass, Italian: 85
[12]; [19]
  Plant response rating, Ryegrass, Italian: 90
[12]; [20]
  Plant response rating, Ryegrass, Italian: 100
[12]; [21]
  Plant response rating, Ryegrass, Italian: 75
[13]; [15]
  Speedwell plant response rating: 25
[13]; [16]
  Plant response rating, Speedwell: 35
[13]; [17]
  Plant response rating, Speedwell: 65
[13]; [21]
  Plant response rating, Speedwell: 30
[14]; [15]
  Windgrass plant response rating: 15
[14]; [16]
  Plant response rating, Windgrass: 35
[14]; [17]
  Plant response rating, Windgrass: 65
[14]; Preemergence, 31 g ai/ha
  Plant response rating (scale of 0 to 100), Windgrass: 25
[14]; [18]
  Plant response rating, Windgrass: 40
[14]; [19]
  Plant response rating, Windgrass: 50
[14]; [20]
  Plant response rating, Windgrass: 80
[14]; [21]
  Plant response rating, Windgrass: 20
